Activity calls are given as the source filed them. The rule behind the calls is not given here.
Assays:
[1] = target: T1, Peroxisome proliferator-activated receptor delta (Homo sapiens) (UniProt Q03181); test: Agonist activity at human full length PPARdelta expressed in human HepG2 cells co-transfected with PPRE3-TK-luc assessed as […] at 1 uM by firefly luciferase assay; format: functional, cell-based
T1 sequence (whole entry): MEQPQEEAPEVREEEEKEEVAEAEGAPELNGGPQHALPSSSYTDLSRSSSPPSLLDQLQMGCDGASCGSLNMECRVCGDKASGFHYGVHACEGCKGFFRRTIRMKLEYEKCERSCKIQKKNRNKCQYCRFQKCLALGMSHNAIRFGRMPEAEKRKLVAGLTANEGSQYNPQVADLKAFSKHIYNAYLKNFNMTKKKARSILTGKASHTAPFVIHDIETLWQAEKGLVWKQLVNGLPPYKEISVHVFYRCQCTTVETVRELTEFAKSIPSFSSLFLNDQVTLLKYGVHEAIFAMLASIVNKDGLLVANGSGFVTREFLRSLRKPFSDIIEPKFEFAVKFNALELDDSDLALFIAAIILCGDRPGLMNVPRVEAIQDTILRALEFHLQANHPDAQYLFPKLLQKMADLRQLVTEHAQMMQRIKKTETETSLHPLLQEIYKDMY

Mus musculus = test: Reduction in serum triglyceride level in Swiss albino mouse at 10 mg/kg/day for 6 days relative to control; format: functional; parameters: scale not given: the % may be the effect or the level left
[2] = target: T2, Peroxisome proliferator-activated receptor alpha (Homo sapiens) (UniProt Q07869); test: Agonist activity at human full length PPARalpha expressed in human HepG2 cells co-transfected with PPRE3-TK-luc assessed as […] by firefly luciferase assay relative to WY-14643; format: functional, cell-based; parameters: concentration or dose not given beside the values
T2 sequence (whole entry): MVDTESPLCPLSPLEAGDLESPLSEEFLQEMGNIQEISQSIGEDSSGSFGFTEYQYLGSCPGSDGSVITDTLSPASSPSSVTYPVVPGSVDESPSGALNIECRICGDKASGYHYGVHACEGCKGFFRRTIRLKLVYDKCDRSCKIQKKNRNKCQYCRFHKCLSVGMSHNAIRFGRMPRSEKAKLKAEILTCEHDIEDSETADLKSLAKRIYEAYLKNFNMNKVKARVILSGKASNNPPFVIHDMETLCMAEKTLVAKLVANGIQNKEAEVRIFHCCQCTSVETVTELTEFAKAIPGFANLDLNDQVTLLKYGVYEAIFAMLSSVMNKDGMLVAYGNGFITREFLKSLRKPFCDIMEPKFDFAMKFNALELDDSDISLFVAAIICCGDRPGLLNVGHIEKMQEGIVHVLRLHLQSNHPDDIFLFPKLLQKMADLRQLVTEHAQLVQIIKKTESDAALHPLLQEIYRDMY

[3] = target: T3, Peroxisome proliferator-activated receptor alpha (Homo sapiens, UniProt Q07869); test: Agonist activity at human full length PPARalpha expressed in human HepG2 cells co-transfected with PPRE3-TK-luc assessed as […] by firefly luciferase assay; format: functional, cell-based
T3 sequence (Q07869 whole entry): T2 sequence (whole entry)

[4] = target: T4, Peroxisome proliferator-activated receptor gamma (Homo sapiens, UniProt P37231); test: Agonist activity at human full length PPARgamma expressed in human HepG2 cells co-transfected with PPRE3-TK-luc assessed as […] by firefly luciferase assay; format: functional, cell-based
T4 sequence (P37231 whole entry): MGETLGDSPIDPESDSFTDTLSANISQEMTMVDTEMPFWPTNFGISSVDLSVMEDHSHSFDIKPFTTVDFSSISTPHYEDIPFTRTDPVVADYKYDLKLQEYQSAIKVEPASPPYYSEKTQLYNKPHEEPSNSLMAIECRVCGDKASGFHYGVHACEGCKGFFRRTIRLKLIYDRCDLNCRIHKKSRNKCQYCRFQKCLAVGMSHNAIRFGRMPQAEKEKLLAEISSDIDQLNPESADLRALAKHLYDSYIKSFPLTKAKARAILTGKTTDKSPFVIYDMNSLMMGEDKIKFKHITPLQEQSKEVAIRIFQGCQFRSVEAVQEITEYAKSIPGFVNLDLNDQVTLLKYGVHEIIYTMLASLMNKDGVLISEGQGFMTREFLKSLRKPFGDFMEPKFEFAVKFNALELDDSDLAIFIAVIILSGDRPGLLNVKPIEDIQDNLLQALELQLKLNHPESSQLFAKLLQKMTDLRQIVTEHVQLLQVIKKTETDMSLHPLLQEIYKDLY

Homo sapiens = species on record: Homo sapiens; test: Selectivity for human full length PPARalpha over human full length PPARgamma

| Activity [1] | Activity [2] [%] | EC50 [3] [nM] | EC50 ([4]; read-out: EC50) [nM] | Ratio (Homo sapiens) | EC50 ([4]; hepg2) | Compound | Activity (Mus musculus) [%] |
| --- | --- | --- | --- | --- | --- | --- | --- |
| inactive | 136 | 100 | 800 | – | – | COc1ccc(/C(C)=N/OCCCCO/N=C(/CCC(=O)O)c2ccccc2)cc1OC | 30 |
| inactive | 89 | 2 | 1000 | 320 | – | C/C(=N\OCCCCO/N=C(/CCC(=O)O)c1ccccc1)c1ccc(C)c(C)c1 | 12 |
| inactive | 101 | 50 | 1400 | – | – | C/C(=N\OCCCCO/N=C(/CCC(=O)O)c1ccccc1)c1ccc(F)cc1 | 18 |
| inactive | 257 | 5 | 1600 | – | – | COc1cc(/C(C)=N/OCCCCO/N=C(/CCC(=O)O)c2ccccc2)ccc1C | 36 |
| inactive | 116 | 5 | – | – | – | Cc1oc(-c2ccccc2)nc1COc1ccc(CO/N=C(\CCC(=O)O)c2ccccc2)cc1 [IMIGLITAZAR] | 37 |
| inactive | 41 | 2400 | 1900 | – | – | C/C(=N\OCCCCO/N=C(/CCC(=O)O)c1ccccc1)c1ccc(S(C)(=O)=O)cc1 | 14 |
| inactive | 78 | 50 | 2100 | – | – | C/C(=N\OCCCCO/N=C(/CCC(=O)O)c1ccccc1)c1ccc(C)cc1 | 13 |
| inactive | 79 | 400 | 1400 | – | – | C/C(=N\OCCCCO/N=C(/CCC(=O)O)c1ccccc1)c1ccc(C(F)(F)F)cc1 | 0.6 |
| inactive | 122 | 400 | 700 | – | – | COc1cc(/C(C)=N/OCCCCO/N=C(/CCC(=O)O)c2ccccc2)ccc1F | 19 |
| inactive | 46 | 2300 | – | – | Not Active | C/C(=N\OCCCCO/N=C(/CCC(=O)O)c1ccccc1)c1ccccc1 | – |
| inactive | 102 | 10 | 1100 | 110 | – | COc1ccc(/C(C)=N/OCCCCO/N=C(/CCC(=O)O)c2ccccc2)cc1 | 35 |

| Compound | Activity [1] | Activity [2] [%] | EC50 [3] [nM] | EC50 ([4]; read-out: EC50) [nM] | Ratio (Homo sapiens) | EC50 ([4]; hepg2) | Activity (Mus musculus) [%] |
| --- | --- | --- | --- | --- | --- | --- | --- |
| C/C(=N\OCCCCO/N=C(/CCC(=O)O)c1ccccc1)c1cccc(-c2ccccc2)c1 | inactive | 83 | 20 | 100 | – | – | 23 |
| CCCCc1cccc(/C(C)=N/OCCCCO/N=C(/CCC(=O)O)c2ccccc2)c1 | inactive | 85 | 500 | 200 | – | – | 31 |
| C/C(=N\OCCCCO/N=C(/CCC(=O)O)c1ccccc1)c1ccc2ccccc2c1 | inactive | 61 | 30 | 200 | 6 | – | 25 |
| C/C(=N\OCCCCO/N=C(/CCC(=O)O)c1ccccc1)c1ccc2c(c1)CCCC2 | inactive | 86 | 3 | 200 | – | – | 36 |

From ChEMBL document CHEMBL1157734, “Design and synthesis of novel bis-oximinoalkanoic acids as potent PPAR alpha agonists” (Bioorg Med Chem Lett, 2010)
